Data set [1] has as its system luciferase expression in the liver. In words: In vivo luciferase mRNA expression rodent model (liver luciferase after tail vein injection of FLuc mRNA lipid nanoparticles). Set-up: species or system mice. The note with it: 0.5 mg mRNA/kg, liver 4 hours after administration, LNP 50% cationic lipid/10% DSPC/38.5% cholesterol/1.5% PEG-DMA or 47.5/10/40.7/1.8.
The nature of data set [2]: Determination of pKa of formulated lipids (TNS fluorescence assay in lipid nanoparticles). In kind it is physicochemical. Conditions: Table 3; cationic lipid formulated in LNP, TNS fluorescence assay; read-out: pKa. On the procedure:
As described elsewhere, the pKa of formulated cationic lipids is correlated with the effectiveness of LNPs for delivery of nucleic acids (see Jayaraman et al, Angewandte Chemie, International Edition (2012), 51(34), 8529-8533; Semple et al, Nature Biotechnology 28, 172-176 (2010)). […] Lipid nanoparticles comprising cationic lipid/DSPC/cholesterol/PEG-lipid (50/10/38.5/1.5 mol%) in PBS at a concentration of 0.4 mM total lipid were prepared using the in-line process as described in Example 1. TNS was prepared as a 100 µM stock solution in distilled water. Vesicles were diluted to 24 µM lipid in 2 mL of buffered solutions containing, 10 mM HEPES, 10 mM MES, 10 mM ammonium acetate, 130 mM NaCl, where the pH ranged from 2.5 to 11. An aliquot of the TNS solution was added to give a final concentration of 1 µM and following vortex mixing fluorescence intensity was measured at room temperature in a SLM Aminco Series 2 Luminescence Spectrophotometer using excitation and emission wavelengths of 321 nm and 445 nm. A sigmoidal best fit analysis was applied to the fluorescence data and the pKa was measured as the pH giving rise to half-maximal fluorescence intensity.

The structures appear in SMILES notation.

The pKa is the pH at which an ionisable group is half protonated. As to `CCCCCCCCCCN(C(=O)CCCN(C)C)C(CCCCCCCCC(=O)OC(CCCCCC)CCCCCC)CCCCCCCCC(=O)OC(CCCCCC)CCCCCC` [Compound I-37, DI(TRIDECAN-7-YL) 10-(N-DECYL-4-(DIMETHYLAMINO)BUTANAMIDO)NONADECANEDIOATE], the “Liver Luc @ 0.5 mg/kg (ng luc/g liver)” value in data set [1] amounted to 15234 ± 5248 ng luc/g liver. Further, in data set [2], the pKa was determined as 6.3.
